This is an account of results in patent US4150138A, “Method of reducing blood pressure with thiourea derivatives and guanidine derivatives” (Hoffmann-La Roche Inc., priority 1978, dated 1979).

Series [1] deals with genetically or deoxycorticosterone acetate/sodium chloride fed hypertensive rats. The experiment in a line: Anti-hypertensive activity in hypertensive rats (indirect systolic blood pressure from the tail, heart rate). Format: in vivo, rat (Charles River male). Conditions: 10 mg/kg p.o., 6 hours after administration. On the procedure: For example, Doca-Na hypertension is induced in Charles River male rats weighing 170-210 grams by unilateral nephrectomy followed by subcutaneous implantation of a 25 mg. deoxycorticosterone acetate pellet. Animals are placed in individual cages and receive 0.9% sodium chloride solution and rat chow diet ad libitum. Two weeks are allowed to elapse from the time of surgery for development of hypertension, i.e., systolic blood pressure above 150 mm Hg. Systolic blood pressure is measured indirectly from the tail of unanesthetized rats (restrained in holders heated for 5-10 minutes at 37°-38° C.) using a pneumatic pulse transducer (piezo-electric crystal and occluding cuff). The transducer and occluding cuff are coupled to a two-channel recorder. Control readings are taken prior to drug and at 1, 3, 6 and 24 hours post-drug. All test compounds are prepared in acacia solution (5%) and are orally administered to the test animals.

A short description of series [2]: Acute toxicity (LD50) in the mouse. The note with it: in vivo.
In series [3] the test system is tetrabenazine-induced ptosis in mice. Put plainly: Antidepressant activity: prevention of tetrabenazine-induced ptosis in mice. In kind it is in vivo. The note with it: Mus musculus, ip, 1 h, tetrabenazine (normally 150 mg/kg) i.p. one hour after test compound, ptosis read one hour later, read-out: ED50 (dose at which ptosis is prevented in 3/6 of the mice). As to the method:
The compounds of formulas I and II have central nervous system activity, including antidepressant activity. […] For example, six mice are treated with the test compound. One hour later a ptosis-inducing dose of tetrabenazine (normally 150 mg/kg) is given intraperitoneally. Ptosis is read one hour after the tetrabenazine injection. The ED50 is the dose at which ptosis is prevented in 3/6 of the mice. […] The ED50 is calculated by the method of Behrens. Arch. Exp. Path. & Pharm. 140, 237 (1929).

Where two headings read alike, the source gives them in different places.

Broadly, the LD50 is the dose at which mortality reaches 50%. Take `NCCNC(=S)Nc1cccc(Cl)c1Cl` [1-(2-aminoethyl)-3-(2,3-dichlorophenyl)thiourea]: in series [1], the “decrease in the blood pressure” value is 51 mm/Hg and the “decrease in the heart rate” value came to 95 beats/minutes. The LD50 in series [2] (ip, read-out: LD50 i.p.) worked out at 450 mg/kg. The LD50 in series [2] (po, read-out: LD50 p.o.) is greater than 1000 mg/kg.

Take `NCCNC(=S)Nc1c(Cl)cccc1Cl` [1-(2-aminoethyl)-3-(2,6-dichlorophenyl)thiourea]: in series [1], the “decrease in the blood pressure” value amounted to 73 mm/Hg and the “decrease in the heart rate” value was 81 beats/minutes. Also, the LD50 in series [2] (ip, read-out: LD50 i.p.) lay within 450 to 550 mg/kg. Further, the LD50 in series [2] (po, read-out: LD50 p.o.) lay in the range of 750 to 775 mg/kg. The ED50 in series [3] came out at 5.7 mg/kg.
